Measured values as given in ChEMBL document CHEMBL4507295 (2021).

Tests used:
Details in all cases: Compound concentration 1000.0 nM
[1] = target: Cyclin-dependent kinase 16 (Homo sapiens) (UniProt Q00536)
[2] = target: Serine/threonine-protein kinase 32B (Homo sapiens) (UniProt Q9NY57)
[3] = target: Serine/threonine-protein kinase PAK 6 (Homo sapiens) (UniProt Q9NQU5)
[4] = target: Serine/threonine-protein kinase 10 (Homo sapiens) (UniProt O94804)
[5] = target: RAC-gamma serine/threonine-protein kinase (Homo sapiens) (UniProt Q9Y243)
[6] = tested on: Phosphatidylinositol 4,5-bisphosphate 3-kinase catalytic subunit alpha isoform (Homo sapiens), P42336 [C420R]
[7] = target: Mitogen-activated protein kinase kinase kinase 11 (Homo sapiens) (UniProt Q16584)
[8] = target: Mitogen-activated protein kinase 1 (Homo sapiens) (UniProt P28482)
[9] = target: BMP-2-inducible protein kinase (Homo sapiens) (UniProt Q9NSY1)
[10] = target: Serine/threonine-protein kinase SIK3 (Homo sapiens) (UniProt Q9Y2K2)
[11] = target: cAMP-dependent protein kinase catalytic subunit alpha (Homo sapiens) (UniProt P17612)
[12] = target: Proto-oncogene tyrosine-protein kinase receptor Ret (Homo sapiens) (UniProt P07949)
[13] = target: Cyclin-dependent kinase 15 (Homo sapiens) (UniProt Q96Q40)
[14] = target: Misshapen-like kinase 1 (Homo sapiens) (UniProt Q8N4C8)
[15] = target: Tyrosine-protein kinase ABL2 (Homo sapiens) (UniProt P42684)
[16] = target: Serine/threonine-protein kinase ULK1 (Homo sapiens) (UniProt O75385)
[17] = tested on: Epidermal growth factor receptor (Homo sapiens), P00533 [UNDEFINED MUTATION]
[18] = tested on: Receptor-type tyrosine-protein kinase FLT3 (Homo sapiens), P36888 [UNDEFINED MUTATION]
[19] = tested on: Phosphatidylinositol 4,5-bisphosphate 3-kinase catalytic subunit alpha isoform (Homo sapiens), P42336 [Q546K]
[20] = target: Receptor tyrosine-protein kinase erbB-4 (Homo sapiens) (UniProt Q15303)
[21] = target: ALK tyrosine kinase receptor (Homo sapiens) (UniProt Q9UM73)
[22] = target: Phosphatidylinositol 5-phosphate 4-kinase type-2 beta (Homo sapiens) (UniProt P78356)
[23] = target: 5'-AMP-activated protein kinase catalytic subunit alpha-1 (Homo sapiens) (UniProt Q13131)
[24] = target: BDNF/NT-3 growth factors receptor (Homo sapiens) (UniProt Q16620)
[25] = target: Ribosomal protein S6 kinase alpha-3 (Homo sapiens) (UniProt P51812)
[26] = target: 3-phosphoinositide-dependent protein kinase 1 (Homo sapiens) (UniProt O15530)
[27] = target: Mitogen-activated protein kinase 12 (Homo sapiens) (UniProt P53778)
[28] = target: Dual specificity mitogen-activated protein kinase kinase 5 (Homo sapiens) (UniProt Q13163)
[29] = target: Serine/threonine-protein kinase Nek5 (Homo sapiens) (UniProt Q6P3R8)
[30] = target: Tyrosine-protein kinase CSK (Homo sapiens) (UniProt P41240)
[31] = tested on: Phosphatidylinositol 4,5-bisphosphate 3-kinase catalytic subunit alpha isoform (Homo sapiens), P42336 [M1043I]
[32] = target: Ankyrin repeat and protein kinase domain-containing protein 1 (Homo sapiens) (UniProt Q8NFD2)
[33] = target: Ephrin type-B receptor 2 (Homo sapiens) (UniProt P29323)
[34] = target: Tyrosine-protein kinase receptor UFO (Homo sapiens) (UniProt P30530)
[35] = target: Serine/threonine-protein kinase PRP4 homolog (Homo sapiens) (UniProt Q13523)
[36] = target: Tyrosine-protein kinase Mer (Homo sapiens) (UniProt Q12866)
[37] = target: MAP/microtubule affinity-regulating kinase 4 (Homo sapiens) (UniProt Q96L34)
[38] = target: RAC-beta serine/threonine-protein kinase (Homo sapiens) (UniProt P31751)
[39] = target: Cyclin-dependent kinase 7 (Homo sapiens) (UniProt P50613)
[40] = target: Tyrosine-protein kinase ITK/TSK (Homo sapiens) (UniProt Q08881)
[41] = target: Macrophage colony-stimulating factor 1 receptor (Homo sapiens) (UniProt P07333)
[42] = target: Platelet-derived growth factor receptor beta (Homo sapiens) (UniProt P09619)
[43] = target: Cyclin-dependent kinase 4 (Homo sapiens) (UniProt P11802)
[44] = target: LIM domain kinase 2 (Homo sapiens) (UniProt P53671)

Measured: residual activity

Serine/threonine-protein kinase Nek5 (Homo sapiens), sequence (Q6P3R8 whole entry): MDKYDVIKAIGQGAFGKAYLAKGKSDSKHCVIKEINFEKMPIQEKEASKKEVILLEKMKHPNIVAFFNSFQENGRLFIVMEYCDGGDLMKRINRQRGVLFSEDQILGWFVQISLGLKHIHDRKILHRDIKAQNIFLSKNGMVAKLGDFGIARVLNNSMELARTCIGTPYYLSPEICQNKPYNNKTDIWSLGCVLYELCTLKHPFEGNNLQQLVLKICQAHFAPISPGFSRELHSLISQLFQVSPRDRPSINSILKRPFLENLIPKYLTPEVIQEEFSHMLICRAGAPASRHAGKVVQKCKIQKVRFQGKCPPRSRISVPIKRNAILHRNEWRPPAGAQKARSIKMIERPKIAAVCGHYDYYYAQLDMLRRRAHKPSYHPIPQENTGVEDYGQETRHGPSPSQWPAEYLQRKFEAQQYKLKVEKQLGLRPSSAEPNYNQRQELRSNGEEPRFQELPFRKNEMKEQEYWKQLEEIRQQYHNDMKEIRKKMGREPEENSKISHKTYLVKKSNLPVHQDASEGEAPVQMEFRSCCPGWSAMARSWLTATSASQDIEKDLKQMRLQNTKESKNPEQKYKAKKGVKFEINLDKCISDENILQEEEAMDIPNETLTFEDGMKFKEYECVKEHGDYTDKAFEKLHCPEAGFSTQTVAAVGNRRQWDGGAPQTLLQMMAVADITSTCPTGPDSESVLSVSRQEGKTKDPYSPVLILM
Cyclin-dependent kinase 7 (Homo sapiens), sequence (P50613 whole entry): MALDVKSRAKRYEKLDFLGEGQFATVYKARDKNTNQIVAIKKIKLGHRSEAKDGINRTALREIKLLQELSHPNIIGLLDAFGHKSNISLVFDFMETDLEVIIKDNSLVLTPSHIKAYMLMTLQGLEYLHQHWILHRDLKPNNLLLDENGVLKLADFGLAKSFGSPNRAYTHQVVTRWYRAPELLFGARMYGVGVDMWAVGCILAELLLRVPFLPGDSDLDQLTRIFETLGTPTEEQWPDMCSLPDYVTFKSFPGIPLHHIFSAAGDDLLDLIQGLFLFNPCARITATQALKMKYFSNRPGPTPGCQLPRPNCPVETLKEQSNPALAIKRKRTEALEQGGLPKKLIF
Misshapen-like kinase 1 (Homo sapiens), sequence (Q8N4C8 whole entry, looked up): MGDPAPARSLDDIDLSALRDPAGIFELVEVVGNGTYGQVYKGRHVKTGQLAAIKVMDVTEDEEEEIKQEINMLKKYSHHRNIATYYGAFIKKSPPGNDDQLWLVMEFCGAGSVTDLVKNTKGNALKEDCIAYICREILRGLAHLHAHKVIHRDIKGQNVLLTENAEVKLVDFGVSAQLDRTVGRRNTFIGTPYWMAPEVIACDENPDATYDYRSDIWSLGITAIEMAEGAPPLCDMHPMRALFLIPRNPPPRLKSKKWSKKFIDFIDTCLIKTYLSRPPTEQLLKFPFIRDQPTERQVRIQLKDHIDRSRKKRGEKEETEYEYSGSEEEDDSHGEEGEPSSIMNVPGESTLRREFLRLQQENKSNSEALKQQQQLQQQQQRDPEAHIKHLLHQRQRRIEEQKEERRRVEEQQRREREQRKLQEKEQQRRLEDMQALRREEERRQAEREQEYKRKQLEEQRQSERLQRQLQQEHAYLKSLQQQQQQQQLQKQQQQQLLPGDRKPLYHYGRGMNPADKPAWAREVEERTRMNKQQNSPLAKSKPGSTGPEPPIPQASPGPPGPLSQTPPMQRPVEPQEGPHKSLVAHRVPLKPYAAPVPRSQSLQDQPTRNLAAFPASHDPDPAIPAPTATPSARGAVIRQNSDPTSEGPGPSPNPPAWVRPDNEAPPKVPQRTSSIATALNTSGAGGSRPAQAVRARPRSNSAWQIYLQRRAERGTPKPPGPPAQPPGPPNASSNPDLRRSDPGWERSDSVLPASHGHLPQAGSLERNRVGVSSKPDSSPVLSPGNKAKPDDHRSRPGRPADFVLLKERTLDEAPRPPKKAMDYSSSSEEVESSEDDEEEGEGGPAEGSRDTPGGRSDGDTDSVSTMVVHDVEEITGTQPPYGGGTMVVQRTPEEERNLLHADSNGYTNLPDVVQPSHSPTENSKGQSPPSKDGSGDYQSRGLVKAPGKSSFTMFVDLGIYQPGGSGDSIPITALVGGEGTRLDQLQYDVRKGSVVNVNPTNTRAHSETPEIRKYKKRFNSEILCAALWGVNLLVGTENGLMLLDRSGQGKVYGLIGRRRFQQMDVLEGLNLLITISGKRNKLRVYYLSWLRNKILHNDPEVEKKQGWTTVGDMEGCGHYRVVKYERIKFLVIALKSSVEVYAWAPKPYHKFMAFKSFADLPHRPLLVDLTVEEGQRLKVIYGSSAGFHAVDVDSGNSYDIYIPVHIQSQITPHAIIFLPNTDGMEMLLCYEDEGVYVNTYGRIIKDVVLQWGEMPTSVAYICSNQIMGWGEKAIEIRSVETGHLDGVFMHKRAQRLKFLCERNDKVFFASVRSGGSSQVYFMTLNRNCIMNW
Serine/threonine-protein kinase SIK3 (Homo sapiens), sequence (Q9Y2K2 whole entry, looked up): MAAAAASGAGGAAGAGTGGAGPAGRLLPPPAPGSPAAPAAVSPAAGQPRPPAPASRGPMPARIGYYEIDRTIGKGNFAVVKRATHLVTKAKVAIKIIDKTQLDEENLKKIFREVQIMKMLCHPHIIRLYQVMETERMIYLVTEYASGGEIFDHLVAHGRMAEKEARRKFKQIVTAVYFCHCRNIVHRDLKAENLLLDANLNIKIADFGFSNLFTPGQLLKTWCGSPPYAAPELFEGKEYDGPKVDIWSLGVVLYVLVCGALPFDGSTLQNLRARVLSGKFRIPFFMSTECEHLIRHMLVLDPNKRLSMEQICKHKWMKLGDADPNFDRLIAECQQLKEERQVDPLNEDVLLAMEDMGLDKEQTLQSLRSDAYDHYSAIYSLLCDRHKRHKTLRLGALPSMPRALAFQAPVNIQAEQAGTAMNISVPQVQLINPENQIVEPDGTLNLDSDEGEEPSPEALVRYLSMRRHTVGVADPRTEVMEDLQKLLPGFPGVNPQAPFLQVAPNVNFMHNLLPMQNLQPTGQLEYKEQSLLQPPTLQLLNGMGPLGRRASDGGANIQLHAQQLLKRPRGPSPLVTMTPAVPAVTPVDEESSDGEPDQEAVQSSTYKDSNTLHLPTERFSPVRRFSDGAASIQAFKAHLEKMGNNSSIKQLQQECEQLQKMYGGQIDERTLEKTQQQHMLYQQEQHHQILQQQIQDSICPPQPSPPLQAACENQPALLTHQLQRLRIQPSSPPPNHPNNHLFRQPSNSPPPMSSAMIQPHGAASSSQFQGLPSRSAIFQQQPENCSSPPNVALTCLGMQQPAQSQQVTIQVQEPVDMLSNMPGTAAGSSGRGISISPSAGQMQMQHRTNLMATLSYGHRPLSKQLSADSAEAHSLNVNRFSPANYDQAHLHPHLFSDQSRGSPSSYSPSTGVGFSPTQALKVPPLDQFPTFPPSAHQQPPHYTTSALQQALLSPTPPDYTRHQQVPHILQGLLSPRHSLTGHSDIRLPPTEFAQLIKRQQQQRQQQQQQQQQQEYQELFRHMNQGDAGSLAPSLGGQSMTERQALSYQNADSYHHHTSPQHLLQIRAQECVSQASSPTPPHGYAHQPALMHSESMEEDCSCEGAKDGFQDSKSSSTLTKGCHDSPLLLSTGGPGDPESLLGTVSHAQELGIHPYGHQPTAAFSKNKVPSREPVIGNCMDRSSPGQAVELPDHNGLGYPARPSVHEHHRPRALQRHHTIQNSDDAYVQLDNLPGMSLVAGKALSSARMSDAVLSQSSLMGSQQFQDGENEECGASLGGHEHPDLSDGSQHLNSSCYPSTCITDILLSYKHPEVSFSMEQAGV
Serine/threonine-protein kinase 32B (Homo sapiens), sequence (Q9NY57 whole entry): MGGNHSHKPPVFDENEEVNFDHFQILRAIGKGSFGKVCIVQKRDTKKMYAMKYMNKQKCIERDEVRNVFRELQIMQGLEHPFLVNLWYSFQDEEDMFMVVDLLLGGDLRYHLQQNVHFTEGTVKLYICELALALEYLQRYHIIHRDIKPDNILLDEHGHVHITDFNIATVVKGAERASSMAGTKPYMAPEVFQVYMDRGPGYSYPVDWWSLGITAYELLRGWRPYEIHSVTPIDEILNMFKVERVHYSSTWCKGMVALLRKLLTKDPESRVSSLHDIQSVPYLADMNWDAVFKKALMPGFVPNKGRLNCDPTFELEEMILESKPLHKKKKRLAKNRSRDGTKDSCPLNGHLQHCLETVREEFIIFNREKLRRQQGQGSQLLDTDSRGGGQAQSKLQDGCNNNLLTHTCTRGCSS
Macrophage colony-stimulating factor 1 receptor (Homo sapiens), sequence (P07333 whole entry): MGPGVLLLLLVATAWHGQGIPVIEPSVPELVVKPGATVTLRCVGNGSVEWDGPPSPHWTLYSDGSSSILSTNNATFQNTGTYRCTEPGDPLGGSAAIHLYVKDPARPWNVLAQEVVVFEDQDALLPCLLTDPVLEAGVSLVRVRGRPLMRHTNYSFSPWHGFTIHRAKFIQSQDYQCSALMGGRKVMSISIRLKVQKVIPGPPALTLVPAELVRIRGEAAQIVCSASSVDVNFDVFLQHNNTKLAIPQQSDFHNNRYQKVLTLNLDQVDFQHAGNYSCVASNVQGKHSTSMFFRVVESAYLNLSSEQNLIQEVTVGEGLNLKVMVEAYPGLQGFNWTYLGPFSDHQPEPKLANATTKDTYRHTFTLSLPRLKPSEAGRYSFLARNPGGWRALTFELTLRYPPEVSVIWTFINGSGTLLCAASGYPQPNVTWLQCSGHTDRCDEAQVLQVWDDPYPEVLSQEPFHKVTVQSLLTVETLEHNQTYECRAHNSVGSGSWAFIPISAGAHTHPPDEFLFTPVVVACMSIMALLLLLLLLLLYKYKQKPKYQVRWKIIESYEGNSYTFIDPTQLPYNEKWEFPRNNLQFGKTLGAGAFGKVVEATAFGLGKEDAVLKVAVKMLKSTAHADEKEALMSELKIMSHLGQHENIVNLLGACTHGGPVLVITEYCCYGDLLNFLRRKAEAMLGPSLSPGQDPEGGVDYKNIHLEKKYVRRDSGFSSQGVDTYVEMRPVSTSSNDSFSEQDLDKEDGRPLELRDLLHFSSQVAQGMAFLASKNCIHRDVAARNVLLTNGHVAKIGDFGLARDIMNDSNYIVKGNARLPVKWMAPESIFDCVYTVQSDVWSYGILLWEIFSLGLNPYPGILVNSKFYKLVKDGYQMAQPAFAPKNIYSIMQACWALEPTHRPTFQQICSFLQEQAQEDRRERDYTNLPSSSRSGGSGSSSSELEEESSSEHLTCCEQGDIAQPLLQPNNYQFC

N#CC1(c2ccccn2)CCN(Cc2cc(C(=O)O)c(=O)n3ccccc23)CC1 [MSD-M1PAM]
inactive: [1] 67% | [2] 100% | [3] 100% | [4] 100% | [5] 100% | [6] 97% | [7] 100% | [8] 100% | [9] 95% | [10] 97% | [11] 88% | [12] 95% | [13] 100% | [14] 92% | [15] 100% | [16] 76% | [17] 100% | [18] 94% | [19] 58% | [20] 72% | [21] 100% | [22] 100% | [23] 100% | [24] 84% | [25] 81% | [26] 100% | [27] 78% | [28] 62% | [29] 100% | [30] 100% | [31] 91% | [32] 68% | [33] 100% | [34] 91% | [35] 100% | [36] 100% | [37] 98% | [38] 73% | [39] 58% | [40] 100% | [41] 95% | [42] 100% | [43] 94% | [44] 100%

N#CC1(c2ccccn2)CCN(Cc2cc(C(=O)N3CCCC3)c(=O)n3ccccc23)CC1
inactive: [1] 100% | [2] 100% | [3] 100% | [4] 95% | [5] 74% | [6] 87% | [7] 89% | [8] 98% | [9] 92% | [10] 100% | [11] 88% | [12] 74% | [13] 85% | [14] 89% | [15] 100% | [16] 91% | [17] 67% | [18] 90% | [19] 94% | [20] 85% | [21] 100% | [22] 62% | [23] 100% | [24] 93% | [25] 60% | [26] 81% | [27] 100% | [28] 100% | [29] 82% | [30] 91% | [31] 72% | [32] 79% | [33] 77% | [34] 78% | [35] 78% | [36] 86% | [37] 90% | [38] 84% | [39] 82% | [40] 95% | [41] 94% | [42] 86% | [43] 91% | [44] 82%
